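Tested at 5 concentrations; 48 h exposure; 96-well plates; endpoints linearly interpolated, else capped at highest concentration. Abbreviation: GI50, concentration required for 50% inhibition of growth.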 The source made the active and inactive calls. Cut-off read from the data, not from the text of the source: active = GI50 up to about 1.1 µM and inactive = higher.
What was measured:
Experiment in all cases: NCI tumour cell line growth inhibition, 48 h
SF-539 = test system: SF-539
HL-60 = test system: HL-60
HCT-116 = test system: HCT-116
SNB-75 = test system: SNB-75
UO-31 = test system: UO-31
UACC-62 = test system: UACC-62
PC-3 = test system: PC-3
OVCAR-3 = test system: OVCAR-3
SW-620 = test system: SW-620
SF-295 = test system: SF-295
NCI-H23 = test system: NCI-H23
MDA-MB-435 = test system: MDA-MB-435
BT-549 = test system: BT-549
CCRF-CEM = test system: CCRF-CEM
LOX IMVI = test system: LOX IMVI
IGROV-1 = test system: IGROV-1
HOP-62 = test system: HOP-62
HT-29 = test system: HT-29
SF-268 = test system: SF-268
SNB-19 = test system: SNB-19

Row | SMILES | GI50 (SF-539) | GI50 (HL-60) | GI50 (HCT-116) | GI50 (SNB-75) | GI50 (UO-31) | GI50 (UACC-62) | GI50 (PC-3) | GI50 (OVCAR-3) | GI50 (SW-620) | GI50 (SF-295) | GI50 (NCI-H23) | GI50 (MDA-MB-435) | GI50 (BT-549) | GI50 (CCRF-CEM) | GI50 (LOX IMVI) | GI50 (IGROV-1) | GI50 (HOP-62) | GI50 (HT-29) | GI50 (SF-268) | GI50 (SNB-19)
1 | COc1cc(C2c3cc4c(cc3OC(NNc3ccccc3)C2C)OCO4)cc(OC)c1OC (stereo not given) | 0.571 µM (active) | 1.58 µM (inactive) | 1.03 µM (active) | 8.3 µM (inactive) | 0.91 µM (active) | 0.544 µM (active) | 0.778 µM (active) | 0.993 µM (active) | 1.4 µM (inactive) | 0.361 µM (active) | 2.83 µM (inactive) | 0.305 µM (active) | 1.01 µM (active) | 0.885 µM (active) | 0.706 µM (active) | 1.26 µM (inactive) | 0.923 µM (active) | 0.986 µM (active) | 1.86 µM (inactive) | 1.32 µM (inactive)
2 | CCOC(=O)c1c(Br)c(-c2ccc(OC)cc2)c(Br)n1C | 20.7 µM (inactive) | 4.06 µM (inactive) | 6.56 µM (inactive) | 1.94 µM (inactive) | 12.2 µM (inactive) | 5.09 µM (inactive) | 11.1 µM (inactive) | 17.1 µM (inactive) | 9.46 µM (inactive) | 25.2 µM (inactive) | 28 µM (inactive) | 2.37 µM (inactive) | 22.4 µM (inactive) | 16.3 µM (inactive) | 7.14 µM (inactive) | 22.2 µM (inactive) | 11.8 µM (inactive) | 12.7 µM (inactive) | 55.5 µM (inactive) | 34.9 µM (inactive)
3 | CCOP(=O)(OCC)c1c(C(=O)OC)cc(=O)[nH]c1-c1ccc(C)cc1 | 7.87 µM (inactive) | 1.23 µM (inactive) | 13.8 µM (inactive) | 12.8 µM (inactive) | 4.05 µM (inactive) | 7.01 µM (inactive) | 16.7 µM (inactive) | 11.1 µM (inactive) | 5.75 µM (inactive) | 19.8 µM (inactive) | 16.9 µM (inactive) | 18.5 µM (inactive) | 7.71 µM (inactive) | 2.02 µM (inactive) | 17.7 µM (inactive) | 6.43 µM (inactive) | 18.5 µM (inactive) | 14.4 µM (inactive) | 19.4 µM (inactive) | 21.6 µM (inactive)
4 | O=C1Nc2cc([N+](=O)[O-])ccc2C(=O)N2CCC[C@@H]12 | > 100 µM (inactive) | > 100 µM (inactive) | > 100 µM (inactive) | > 100 µM (inactive) | > 100 µM (inactive) | > 100 µM (inactive) | > 100 µM (inactive) | > 100 µM (inactive) | > 100 µM (inactive) | > 100 µM (inactive) | > 100 µM (inactive) | > 100 µM (inactive) | > 100 µM (inactive) | > 100 µM (inactive) | > 100 µM (inactive) | > 100 µM (inactive) | > 100 µM (inactive) | > 100 µM (inactive) | > 100 µM (inactive) | > 100 µM (inactive)
5 | COc1ccc(C(=O)/C=C/c2ccc(Oc3cc(C(=O)/C=C/c4ccc(O)cc4)c(O)cc3OC)cc2)c(O)c1 [RHUSCHALCONE I] | 2.19 µM (inactive) | 3.08 µM (inactive) | 1.87 µM (inactive) | 5.27 µM (inactive) | 3.59 µM (inactive) | 3.27 µM (inactive) | 4.84 µM (inactive) | 4.3 µM (inactive) | 4.72 µM (inactive) | 6.41 µM (inactive) | 2.72 µM (inactive) | 3.55 µM (inactive) | 10.4 µM (inactive) | 2.27 µM (inactive) | 2.27 µM (inactive) | 2.59 µM (inactive) | 4.83 µM (inactive) | 2.23 µM (inactive) | 5.19 µM (inactive) | 8.3 µM (inactive)
6 | CCc1nc(N)nc(N)c1-c1ccc2nnn(O)c2c1 | > 100 µM (inactive) | > 100 µM (inactive) | > 83.8 µM (inactive) | > 100 µM (inactive) | > 100 µM (inactive) | > 100 µM (inactive) | > 100 µM (inactive) | > 100 µM (inactive) | > 100 µM (inactive) | > 100 µM (inactive) | > 100 µM (inactive) | > 100 µM (inactive) | > 100 µM (inactive) | > 100 µM (inactive) | > 100 µM (inactive) | > 100 µM (inactive) | > 100 µM (inactive) | > 89.1 µM (inactive) | > 100 µM (inactive) | > 100 µM (inactive)
7 | Cc1cc(=O)oc2cc3oc(N(C)c4ccccc4)nc(=O)c3cc12 | > 100 µM (inactive) | > 100 µM (inactive) | > 100 µM (inactive) | > 100 µM (inactive) | > 100 µM (inactive) | > 100 µM (inactive) | > 100 µM (inactive) | > 100 µM (inactive) | > 100 µM (inactive) | > 100 µM (inactive) | > 100 µM (inactive) | > 100 µM (inactive) | 50.2 µM (inactive) | > 100 µM (inactive) | > 100 µM (inactive) | > 100 µM (inactive) | > 100 µM (inactive) | > 100 µM (inactive) | 40.9 µM (inactive) | 67.9 µM (inactive)
8 | CCOC(=O)/C(=C\c1ccccc1)C(=O)CCN1CCOCC1 | 7.26 µM (inactive) | 1.4 µM (inactive) | 8.97 µM (inactive) | 16.4 µM (inactive) | 16.9 µM (inactive) | 4.24 µM (inactive) | 12.2 µM (inactive) | 7.41 µM (inactive) | 2.33 µM (inactive) | 19.2 µM (inactive) | 8.85 µM (inactive) | 19 µM (inactive) | 16.7 µM (inactive) | 1.29 µM (inactive) | 2.8 µM (inactive) | 15.2 µM (inactive) | 21 µM (inactive) | 6.3 µM (inactive) | 8.17 µM (inactive) | 16.2 µM (inactive)
9 | COc1ccc(C(C)NNC(=O)c2cc[n+]([BH2-]C#N)cc2)cc1F (stereo not given) | > 100 µM (inactive) | > 100 µM (inactive) | > 100 µM (inactive) | > 100 µM (inactive) | > 100 µM (inactive) | > 100 µM (inactive) | > 100 µM (inactive) | > 100 µM (inactive) | > 100 µM (inactive) | > 100 µM (inactive) | 96.2 µM (inactive) | > 100 µM (inactive) | > 100 µM (inactive) | > 100 µM (inactive) | > 100 µM (inactive) | > 100 µM (inactive) | > 100 µM (inactive) | > 100 µM (inactive) | > 100 µM (inactive) | > 100 µM (inactive)
10 | CC(C)CCCC(C)[C@H]1CC[C@H]2NCCCC[C@]12C (stereo not given in full) | 5.92 µM (inactive) | 1.93 µM (inactive) | 3.03 µM (inactive) | 6.03 µM (inactive) | 7.36 µM (inactive) | 2.01 µM (inactive) | 3.07 µM (inactive) | 11.9 µM (inactive) | 2.61 µM (inactive) | 2.33 µM (inactive) | 8.69 µM (inactive) | 2.01 µM (inactive) | 9.38 µM (inactive) | 1.37 µM (inactive) | 1.85 µM (inactive) | 6.19 µM (inactive) | 9.08 µM (inactive) | 2.34 µM (inactive) | 13.1 µM (inactive) | 5.36 µM (inactive)
11 | O=C1CC(O)c2c(Br)sc(Br)c21 (stereo not given) | 6.5 µM (inactive) | 3.2 µM (inactive) | 12.4 µM (inactive) | 16 µM (inactive) | 2.61 µM (inactive) | 13.4 µM (inactive) | 13 µM (inactive) | 4.69 µM (inactive) | 1.93 µM (inactive) | 17.1 µM (inactive) | 22.7 µM (inactive) | 5.58 µM (inactive) | 29.7 µM (inactive) | 0.728 µM (active) | 4.48 µM (inactive) | 15.9 µM (inactive) | 10.6 µM (inactive) | 17.7 µM (inactive) | 18.1 µM (inactive) | 18.6 µM (inactive)
12 | COc1ccc(C2c3cc4c(cc3OC3(OC)COC(=O)C23)OCO4)c(OC)c1 (stereo not given) | 4.62 µM (inactive) | 2.32 µM (inactive) | 5.33 µM (inactive) | 8.93 µM (inactive) | 14.9 µM (inactive) | 5.73 µM (inactive) | 17.7 µM (inactive) | 4.72 µM (inactive) | 6.43 µM (inactive) | 12.8 µM (inactive) | 29.3 µM (inactive) | 1.71 µM (inactive) | 6.56 µM (inactive) | 4.32 µM (inactive) | 6.95 µM (inactive) | 10.5 µM (inactive) | 8.39 µM (inactive) | 3.4 µM (inactive) | 14.6 µM (inactive) | 14.2 µM (inactive)
13 | CC/C(N)=N\NC(=O)OC(C)(C)C | > 100 µM (inactive) | > 100 µM (inactive) | > 100 µM (inactive) | > 100 µM (inactive) | > 100 µM (inactive) | > 100 µM (inactive) | > 100 µM (inactive) | > 100 µM (inactive) | > 100 µM (inactive) | > 100 µM (inactive) | > 100 µM (inactive) | > 100 µM (inactive) | > 100 µM (inactive) | > 100 µM (inactive) | > 100 µM (inactive) | > 100 µM (inactive) | > 100 µM (inactive) | > 100 µM (inactive) | > 100 µM (inactive) | > 100 µM (inactive)
14 | CCN(CC)CCNc1ccc2ncn3c4ccc(OC)cc4c(=O)c1c23 | 4.24 µM (inactive) | 3.49 µM (inactive) | 0.592 µM (active) | 7.08 µM (inactive) | 1.82 µM (inactive) | 16 µM (inactive) | 3.83 µM (inactive) | 7.78 µM (inactive) | 1.36 µM (inactive) | 2.28 µM (inactive) | 4.79 µM (inactive) | 5.21 µM (inactive) | 16.3 µM (inactive) | 1.34 µM (inactive) | 1.51 µM (inactive) | 4.35 µM (inactive) | 5.21 µM (inactive) | 1.28 µM (inactive) | 2.21 µM (inactive) | 3.76 µM (inactive)

— ChEMBL document CHEMBL1201862, “PubChem BioAssay data set” (2004)
